“Also recorded” adds a separate entry of the source.
Experiments:
F1 cells = test: tritiated thymidine incorporation, cell growth; type: cell-based, mouse; conditions: F1 cells in vitro
Procedure: (§1) An in vitro assay relying on tritiated thymidine incorporation can be used to ascertain the effect of various compounds on cell proliferation. Briefly, tumor cells are seeded in flat bottom 96 well plates (Corning, N.Y.) at a concentration of 2×10^4 cells per well. The cells were cultured for 2 days in DMEM containing various concentrations of sphingoid which was added as a PBS solution. The medium then was supplemented with tritiated thymidine at a concentration of 0.5 μCi per well. Following a six hour incubation the cells were collected using the PHD Cell Harvester (Cambridge Technology, Cambridge, Mass.) and amounts of incorporated radioactivity were determined after adding a suitable cell lysing agent and scintillation cocktail, such as ScintiVerse BD (Fisher Scientific, Fairlawn, Calif.) which performs both functions.
(§2) Certain cancer cells show a higher metastatic potential and invasive capability than others. For example, in the mouse, the BL6 and F10 melanoma cell lines are highly metastatic and invasive. On the other hand, the F1 variant is much less metastatic and invasive (I. R. Hart et al., Amer. J. Pathol., 97, 587-592 (1979); G. Poote et al., Cancer Res. 42, 2770-2778 (1982); F1 and F10 clones from ATCC CRL 6323, and CRL 6475, respectively). BL6 and F1 cells were tested in vitro as described above. […]

BL6 cells = test: tritiated thymidine incorporation, cell growth; type: cell-based, mouse; conditions: BL6 cells in vitro
Procedure: as §1, §2

platelets = test: platelet aggregation (aggregometer, thrombin or ADP); type: cell-based; conditions: background statement
Procedure: Platelets were isolated from platelet-rich plasma (purchased from the Oregon Red Cross, Portland, Oreg.). Contaminating erythrocytes were removed by centrifugation (80×g for 10 minutes). Platelets were obtained by centrifugation (300×g for 10 minutes), washed once in Tyrode buffer (pH 6.5) containing 22 mM trisodium citrate and 0.35% (w/v) BSA and resuspended in the same buffer to obtain a concentration of 1-2×10^9 platelets/ml. All procedures were performed at room temperature.
A suspension of platelets (about 3.5×10^8 /ml) in Tyrode buffer was preincubated with inhibitor compounds (H-7 [1-(5-isoquinolinylsulfonyl)-2-methylpiperazine, a synthetic protein kinase-C inhibitor purchased from Seikagaku America Inc., St. Petersburg, Fla.], Calphostin-C [a synthetic protein kinase-C inhibitor obtained from Dr. Saitoh, Kyowa Hakko Co., Ltd., Machida, Tokyo, Japan], sphingosine [purchased from Sigma, St. Louis, Mo.] and dimethylsphingosine and trimethylsphingosine [synthesized according to Igarashi et al., Biochem., 28, 6796, 1989]) followed by addition of thrombin or ADP (both purchased from Sigma). Platelet aggregation was evaluated by transmittance change using an aggregometer (Chrono-log Corp., Havertown, Pa.) equipped with a computer analyzer.

neutrophils = test: phagokinetic activity of neutrophils on gold sol-coated plates; type: cell-based, human
From the text: The phagokinetic activity of neutrophils on gold sol-coated plates can be determined by a technique essentially as taught in Albrecht-Buehler (Cell, 11, 395, 1977). […] The TMS-dependent inhibitory effect is reversed completely when the culture medium is replaced with TMS-free medium. Thus, the inhibitory effect of TMS on phagokinetic activity is not dependent on cytotoxicity.

B16BL6 melanoma cells = test: metastasis of B16BL6 melanoma cells (lung metastatic deposits in mice); type: in vivo, mouse; conditions: BL6 cells injected into mice; irrespective of route or timing
Procedure: BL6 cells were injected into mice and metastatic deposits in the lung were assessed after various treatments including route and timing, of administration.

HL60 cells = test: HL60 adhesion on activated platelet-coated solid phase; type: cell-based, human; conditions: thrombin-stimulated and PMA-stimulated platelets
Procedure: HL60 (a human promylelocytic cell line available from the ATCC under accession number CCL 240) adhesion on resting or activated platelet-coatedsolid phase was evaluated as follows. Each well of a 48-well plate (Costar Scientific, Cambridge, Mass.) was filled with a poly-L-lysine solution (100 μg/ml in PBS) and incubated for 1 hour. Each well then was washed with PBS and then 150 μl of PBS containing 6×10^7 resting or activated platelets were added to each well and the plate was incubated for 1 hour. Plates were centrifuged (300×g for 7 minutes) and incubated a further 30 minutes at room temperature. Bound platelets were fixed by addition of 0.1% (w/v) glutaraldehyde in PBS for 2 minutes at 4° C. Each well was washed with 10 mM glycine in PBS and plates were incubated with 5% (w/v) BSA containing 0.1% (w/v) sodium azide, 10 mM glycine in PBS for 1 hour at room temperature.

GMP-140 = GMP-140 expression in platelets (flow cytometry with mAb AC1.2); type: cell-based; conditions: platelets preincubated with compound; thrombin or PMA activation
Procedure: GMP-140 expression was determined by (i) flow cytometry with mAb AC1.2, which is directed to GMP-140 and obtained from Dr. Furie (Tufts Univ. Sch. Med., Boston, Mass.) and (ii) adhesion of HL60 cells on platelet-coated solid phase.
A suspension of platelets (1×10^8 /ml) in Tyrode buffer was preincubated with inhibitor at pH 7.2, 37° C., for 5 minutes, then supplemented with activator, either thrombin (final concentration 1 U/ml) or phorbol 12-myristate 13-acetate (PMA) (final concentration 10^-7 M), and then the mixture was incubated at 37° C. for 10 minutes. Platelets were fixed with an equal volume of 2% (w/v) paraformaldehyde in PBS and washed 2 times with PBS containing 1% (w/v) BSA.
The paraformaldehyde-fixed platelets were incubated with 50 μl of mAb AC1.2 (2.5 μg/ml) at room temperature for 30 minutes. […]
The platelets were analyzed in an Epics flow cytometer (Coulter Corp.) with suitable gating. To calculate the inhibitory effect of various reagents, the mean fluorescence intensity of resting platelets (obtained on incubation of platelets without activator) was subtracted from the value for the activated platelet sample.

`CCCCCCCCCCCCC/C=C/C(O)C(CO)[N+](C)(C)C` (stereo not shown) [TMS, N,N,N-trimethylsphingosine] was tested, and the inhibiting cell growth (F1 cells) was “more effective than DMS and sphingosine”, the inhibiting cell growth (BL6 cells) was “more effective than DMS and sphingosine” and the “Platelet aggregation and associated ATP secretion” value (platelets) was “inhibited strongly”. For the same molecule, the Phagokinetic activity (neutrophils) was “suppressed significantly”, the “lung colonization and tumor development” value (B16BL6 melanoma cells) was “effective in suppressing” and the HL60 cell binding (HL60 cells) was “inhibited strongly”. For the same molecule, the GMP-140 expression (GMP-140) was “down-regulated or blocked; also recorded: inhibits GMP-140 expression”.

— US6031135A, “Trimethylsphingosine derivatives” (Oncomembrane, Inc., priority 1996, dated 2000)
